target: CFTR (WT-CFTR channels stably expressed in CHO cells) (Homo sapiens (Human), UniProt P13569); assay: IonWorks Quattro CFTR inhibitor assay (whole-cell population patch clamp, forskolin-activated current); assay type: cell-based; details: inward current (−100 mV); CHO cells stably expressing WT-CFTR; CFTR activated with 10 μM forskolin; 10 min compound incubation
Text: CFTR activity can be quantified by electrophysiology methods, using the whole-cell configuration of the patch clamp technique (Hamill O, Marty A, Neher E, Sakmann B and Sigworth F. ‘Improved patch-clamp techniques for high resolution current recording from cells and cell-free membrane patches.’ Pflugers Archive 1981 391: 85-100). This assay directly measures the currents associated with chloride flow through CFTR channels whilst either maintaining or adjusting the transmembrane voltage. This assay can use either single glass micropipettes or parallel planar arrays to measure CFTR activity from native or recombinant cell systems. Currents measured using parallel planar arrays can be quantified using an appropriately equipped instrument such as the IonWorks Quattro (Molecular Devices Corporation, Sunnyvale, Calif.). The Quattro system can measure CFTR currents from either a single cell per recording well (HT configuration) or alternatively from a population of 64 cells per well (Population Patch Clamp PPC) (Finkel A, Wittel A, Yang N, Handran S, Hughes J, Costantin J. ‘Population patch clamp improves data consistency and success rates in the measurement of ionic currents.’ J Biomol Screen. 2006 August; 11(5):488-96).
Chinese hamster ovary (CHO) cells stably expressing WT-CFTR channels were used for the IonWorks Quattro experiments. Cells were maintained at 37° C. in 5% v/v CO2 at 100% humidity in MEM alpha medium supplemented with 10% (v/v) FCS, 100 U/mL Penicillin/Streptomycin, and 100 μg/L methotrexate. For experiments, cells were grown in 225 cm^2 tissue culture flasks until almost confluent. Cells were removed from the flask using trypsin-EDTA and resuspended in extracellular recording solution for immediate experimentation.
Cells, at a density of 1.5-2 million per mL, were placed on the Quattro system, added to the planar patch plate and seals allowed to establish for 5-10 mins. After assessing seal resistances (typically >50 MΩ), whole-cell access was obtained by perforation with 100 μg/mL amphotericin B. Baseline currents were measured by a pre-compound scan obtained by application of a voltage ramp from −100 to +100 mV. CFTR was activated by the addition of 10 μM forskolin to each of the 384 wells of the patch plate. After 5 min incubation the post-compound 1 currents were measured, again by application of a voltage ramp from −100 to +100 mV. Test compounds, diluted from 10 mM stocks in DMSO in extracellular solution were then added to the patch plate and were incubated for a further 10 min. The post-compound 2 currents were measured by the application of the same voltage ramp from −100 to +100 mV. The inhibition of CFTR was determined from the difference in current between the forskolin addition (post-compound 1) and the test compound (post-compound 2). This was determined at both −100 mV and +100 mV which represents the inward and outward current respectively.
Extracellular solution (ECS): 145 mM NaCl, 4 mM CsCl, 5 mM D-glucose, 10 mM TES, 1 mM CaCl2, 1 mM MgCl2, pH 7.4 NaOH
Intracellular solution (ICS): 113 mM L-Aspartic acid, 113 mM CsOH, 27 mM CsCl, 1 mM NaCl, 1 mM MgCl2, 1 mM EGTA, 10 mM TES. pH 7.2 with CsOH. Filter sterilized before use.

CFTR (WT-CFTR channels stably expressed in CHO cells), sequence (P13569 whole entry): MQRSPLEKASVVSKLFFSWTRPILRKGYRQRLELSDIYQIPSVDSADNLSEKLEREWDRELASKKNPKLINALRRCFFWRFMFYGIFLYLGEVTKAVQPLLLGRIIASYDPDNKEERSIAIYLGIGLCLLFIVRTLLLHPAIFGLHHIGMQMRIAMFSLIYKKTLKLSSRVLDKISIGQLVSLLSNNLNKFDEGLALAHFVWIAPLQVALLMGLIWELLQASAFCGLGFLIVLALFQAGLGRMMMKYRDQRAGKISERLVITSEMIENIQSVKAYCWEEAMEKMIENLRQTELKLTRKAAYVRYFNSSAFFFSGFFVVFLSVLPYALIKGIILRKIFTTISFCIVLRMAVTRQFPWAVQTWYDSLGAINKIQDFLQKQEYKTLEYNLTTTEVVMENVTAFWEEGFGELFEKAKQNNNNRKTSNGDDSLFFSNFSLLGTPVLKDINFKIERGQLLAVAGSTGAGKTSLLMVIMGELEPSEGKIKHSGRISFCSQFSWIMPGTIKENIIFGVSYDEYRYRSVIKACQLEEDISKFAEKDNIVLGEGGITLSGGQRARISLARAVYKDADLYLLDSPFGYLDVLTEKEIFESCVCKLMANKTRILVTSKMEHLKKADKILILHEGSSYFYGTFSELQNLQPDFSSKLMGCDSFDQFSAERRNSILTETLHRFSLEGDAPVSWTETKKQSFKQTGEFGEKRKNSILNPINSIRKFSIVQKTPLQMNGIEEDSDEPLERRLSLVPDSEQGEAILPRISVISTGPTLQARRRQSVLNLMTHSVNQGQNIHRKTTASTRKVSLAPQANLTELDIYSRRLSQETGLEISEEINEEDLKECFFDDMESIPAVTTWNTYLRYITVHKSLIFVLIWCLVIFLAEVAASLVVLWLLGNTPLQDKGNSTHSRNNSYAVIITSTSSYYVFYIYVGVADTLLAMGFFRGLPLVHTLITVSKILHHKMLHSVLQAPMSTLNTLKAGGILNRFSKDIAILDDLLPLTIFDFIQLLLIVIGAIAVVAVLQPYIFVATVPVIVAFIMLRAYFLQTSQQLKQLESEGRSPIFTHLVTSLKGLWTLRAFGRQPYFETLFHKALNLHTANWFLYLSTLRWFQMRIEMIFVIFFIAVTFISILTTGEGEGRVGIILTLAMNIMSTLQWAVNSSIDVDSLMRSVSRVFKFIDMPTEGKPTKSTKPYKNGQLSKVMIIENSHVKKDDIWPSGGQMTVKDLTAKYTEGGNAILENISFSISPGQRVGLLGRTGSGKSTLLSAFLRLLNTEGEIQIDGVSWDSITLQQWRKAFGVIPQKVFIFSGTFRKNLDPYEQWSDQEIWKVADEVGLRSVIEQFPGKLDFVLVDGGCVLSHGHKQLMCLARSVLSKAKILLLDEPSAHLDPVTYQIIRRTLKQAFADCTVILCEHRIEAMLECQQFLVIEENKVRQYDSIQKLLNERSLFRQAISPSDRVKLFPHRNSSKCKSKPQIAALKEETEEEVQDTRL

Structure (SMILES) | IC50 [µM]
Cn1c(=O)c2c(-c3ccccc3)n3c(c2n(C)c1=O)C(c1cccc(F)c1F)NCC3 (centres unmarked) [Example 1.14, 10-(2,3-Difluorophenyl)-1,3-dimethyl-5-phenyl-7,8,9,10-tetrahydropyrazino[1′,2′:1,2]pyrrolo[3,4-d]pyrimidine-2,4(1H,3H)-dione] | 11.5
Cn1c(=O)c2c(-c3ccccc3)n3c(c2n(C)c1=O)C(C1CC=CCC1)NCC3 (centres unmarked) [Example 1.17, 10-(Cyclohex-3-en-1-yl)-1,3-dimethyl-5-phenyl-7,8,9,10-tetrahydropyrazino[1′,2′:1,2]pyrrolo[3,4-d]pyrimidine-2,4(1H,3H)-dione] | 18.1
Cn1c(=O)c2c(-c3ccccc3)n3c(c2n(C)c1=O)C(c1ccc(Cl)cc1)NCC3 (centres unmarked) [Example 1.23, 10-(4-Chlorophenyl)-1,3-dimethyl-5-phenyl-7,8,9,10-tetrahydropyrazino[1′,2′:1,2]pyrrolo[3,4-d]pyrimidine-2,4(1H,3H)-dione] | 29.9
Cc1csc(-c2c3c(=O)n(C)c(=O)n(C)c3c3n2CCNC3c2ccc(Cl)o2)n1 (centres unmarked) [Example 1.26, 10-(5-Chlorofuran-2-yl)-1,3-dimethyl-5-(4-methylthiazol-2-yl)-7,8,9,10-tetrahydropyrazino[1′,2′:1,2]pyrrolo[3,4-d]pyrimidine-2,4(1H,3H)-dione] | 1.9
Cn1c(=O)c2c(-c3cccc(F)c3)n3c(c2n(C)c1=O)[C@H](c1ccc(Cl)o1)O[C@@H](CO)C3 [Example 6, (8R,10R)-10-(5-Chlorofuran-2-yl)-5-(3-fluorophenyl)-8-(hydroxymethyl)-1,3-dimethyl-7,8-dihydro-1H-pyrimido[4′,5′:3,4]pyrrolo[2,1-c][1,4]oxazine-2,4(3H,10H)-dione] | 0.05
Cc1csc([C@H]2O[C@@H](C)Cn3c(-c4ccccc4)c4c(=O)n(C)c(=O)n(C)c4c32)n1 [Example 12, (8S)-1,3,8-trimethyl-10-(4-methylthiazol-2-yl)-5-phenyl-7,8-dihydro-1H-pyrimido[4′,5′:3,4]pyrrolo[2,1-c][1,4]oxazine-2,4(3H,10H)-dione] | 0.6
Cn1c(=O)c2c(-c3ccccc3)n3c(c2n(C)c1=O)[C@H](c1nc(Cl)cs1)COCC3 [Example 13, 11-(4-chlorothiazol-2-yl)-1,3-dimethyl-5-phenyl-7,8,10,11-tetrahydropyrimido[4′,5′:3,4]pyrrolo[1,2-d][1,4]oxazepine-2,4(1H,3H)-dione] | 3.53
Cn1c(=O)c2c(-c3cccc(C#N)c3)n3c(c2n(C)c1=O)[C@H](c1nc(Cl)cs1)CO[C@H](CO)C3 [Example 14, 3-(11-(4-chlorothiazol-2-yl)-8-(hydroxymethyl)-1,3-dimethyl-2,4-dioxo-1,2,3,4,7,8,10,11-octahydropyrimido[4′,5′:3,4]pyrrolo[1,2-d][1,4]oxazepin-5-yl)benzonitrile] | 1.96

Now from value to compound:

IC50 [µM] | Structure (SMILES)
0.7 | Cn1c(=O)c2c(-c3cccc(Cl)c3)n3c(c2n(C)c1=O)C(c1ccc(Cl)o1)NCC3 (centres unmarked) [Example 3.1, 10-(5-Chlorofuran-2-yl)-5-(3-chlorophenyl)-1,3-dimethyl-7,8,9,10-tetrahydropyrazino[1′,2′:1,2]pyrrolo[3,4-d]pyrimidine-2,4(1H,3H)-dione]
0.64 | Cc1csc(C2NCCn3c(-c4cccc(Cl)c4)c4c(=O)n(C)c(=O)n(C)c4c32)n1 (centres unmarked) [Example 3.2, 5-(3-Chlorophenyl)-1,3-dimethyl-10-(4-methylthiazol-2-yl)-7,8,9,10-tetrahydropyrazino[1′,2′:1,2]pyrrolo[3,4-d]pyrimidine-2,4(1H,3H)-dione]
8.26 | Cc1cc(C)cc(-c2c3c(=O)n(C)c(=O)n(C)c3c3n2CCNC3c2ccc(Cl)o2)c1 (centres unmarked) [Example 3.6, 10-(5-Chlorofuran-2-yl)-5-(3,5-dimethylphenyl)-1,3-dimethyl-7,8,9,10-tetrahydropyrazino[1′,2′:1,2]pyrrolo[3,4-d]pyrimidine-2,4(1H,3H)-dione]
3.24 | Cc1csc(C2OC[C@@H](C)n3c(-c4ccccc4)c4c(=O)n(C)c(=O)n(C)c4c32)n1 (stereo partly drawn) [Example 5.1, (7R)-1,3,7-trimethyl-10-(4-methylthiazol-2-yl)-5-phenyl-7,8-dihydro-1H-pyrimido[4′,5′:3,4]pyrrolo[2,1-c][1,4]oxazine-2,4(3H,10H)-dione]
0.31 | Cn1c(=O)c2c(-c3ccccc3)n3c(c2n(C)c1=O)[C@H](c1ccc(Cl)o1)N[C@@H](CO)C3 [Example 11a, 10-(5-Chlorofuran-2-yl)-8-(hydroxymethyl)-1,3-dimethyl-5-phenyl-7,8,9,10-tetrahydropyrazino[1′,2′:1,2]pyrrolo[3,4-d]pyrimidine-2,4(1H,3H)-dione]
0.62 | Cn1c(=O)c2c(-c3ccccc3)n3c(c2n(C)c1=O)C(c1ccc(Cl)o1)OC(C)(C)C3 (centres unmarked) [Example 12.5, 10-(5-Chlorofuran-2-yl)-1,3,8,8-tetramethyl-5-phenyl-7,8-dihydro-1H-pyrimido[4′,5′:3,4]pyrrolo[2,1-c][1,4]oxazine-2,4(3H,10H)-dione]
